This experiment has as its target T1, human nicotinic alpha7 WT receptor (Homo sapiens, UniProt P36544).
T1 construct: expressed in transfected cells; host or cells: GH4C1 (rat pituitary-derived cell line), RPA clone #34.7
The experiment can be described thus: Nicotinic alpha 7 Modulation Assay (FLIPR). In kind it is cell-based. The conditions noted are these: GH4C1 cells stably expressing human nicotinic alpha7 WT receptor, ACh 30 μM, positive control 1 μM PNU-120596. Here is the method:
Nicotinic alpha 7 Modulation Assay
Cell Culture Growth Media: F10 medium (Invitrogen), 2.5% Fetal Bovine Serum (FBS, Summit Biotechnology); 15% heat inactivated donor Horse Serum (Invitrogen), 250 μg/ml Hygromycin B (Invitrogen); and 100 nM Methyllicaconite (MLA, Sigma) are added to each new culture by 50-fold dilution of stock solution prepared in H2O at 5 μM.
GH4C1 cells (rat pituitary-derived cell line) stably expressing human nicotinic alpha7 WT receptor (RPA clone #34.7) are cultivated in cell culture growth media (described above) at 37 C in a humidified atmosphere containing 4% CO2. […]
The alpha 7 nAChR assay is a cell-based functional readout designed to determine the effect of test compounds to either directly activate nicotinic receptor channels and/or to modulate activation by the native agonist acetylcholine (ACh, Sigma). […]
Assay of test compound effect on activation of the alpha7 nicotinic receptor channel is done by measurement of cytosolic [Ca^2+] elevation as reported by increased FLUO-3 fluorescence using a two addition experimental design and FLIPR™ (Molecular Devices). Following a 30 second baseline recording, test compounds are added online (dilution scheme below) and cell response is recorded for an additional 5 minutes. After a second addition of ACh (30 μM, FAC), plates are read for an additional 4 minutes. […]

T1 sequence (P36544 23-502): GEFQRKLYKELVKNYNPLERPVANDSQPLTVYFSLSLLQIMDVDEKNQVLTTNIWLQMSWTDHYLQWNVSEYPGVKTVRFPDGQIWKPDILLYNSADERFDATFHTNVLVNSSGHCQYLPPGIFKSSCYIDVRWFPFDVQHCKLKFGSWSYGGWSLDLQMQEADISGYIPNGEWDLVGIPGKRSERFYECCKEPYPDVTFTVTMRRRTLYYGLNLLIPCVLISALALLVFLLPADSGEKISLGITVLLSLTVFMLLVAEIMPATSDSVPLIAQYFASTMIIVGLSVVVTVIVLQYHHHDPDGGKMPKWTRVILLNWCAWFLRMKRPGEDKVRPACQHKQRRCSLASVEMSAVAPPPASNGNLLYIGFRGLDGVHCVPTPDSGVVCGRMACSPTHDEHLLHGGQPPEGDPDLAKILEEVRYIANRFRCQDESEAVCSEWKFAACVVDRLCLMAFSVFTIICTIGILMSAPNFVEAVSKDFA

`COc1ccccc1-c1cc(C(=O)NCCc2ccc(S(N)(=O)=O)cc2)cc(-n2cnnn2)c1` [Compound 4, 2′-Methoxy-5-tetrazol-1-yl-biphenyl-3-carboxylic acid [2-(4-sulfamoyl-phenyl)-ethyl]-amide] registered a positive allosteric modulation of 467.65.

Values taken from patent publication US7981914B2, “Tetrazole-substituted aryl amide derivatives and uses thereof” (Roche Palo Alto LLC, priority 2007, dated 2011).
